Entries after “also recorded” stand apart in the source; their conditions may differ.
Tests used:
[1] = test system: Transferrin receptor mRNA (TfR mRNA); assay: Quantitative real-time PCR of transferrin receptor mRNA (positive control) in SY5Y cells; format: cell-based
Method: (§1) Quantitative real-time PCR (qRTPCR) was used to measure steady-state mRNA levels for α-synuclein mRNA relative to […] in response to iron. Neuroblastoma (SY5Y) cells were treated with iron or desferrioxamine (DFO) for 6 hours or 16 hours and control cells were left untreated (U) for the same indicated times (i.e., 6 hours untreated=U6, and 16 hours untreated=U16). TfR mRNA was the experimental positive control mRNA.
(§2) The qRTPCR was conducted as follows. Total RNA was isolated from iron and desferrioxamine treated neuroblastoma cell line, SH-SY5Y according to manufacturers specification (RNAeasy Mini Kit, Qiagen, Valencia, Calif.). The optional on-column DNase digestion with the RNase-Free DNase set (Qiagen) was incorporated into all RNA isolations.
(§3) 3 μg total RNA was primed with oligo-dT and the Superscript II enzyme according to manufacturer's instructions (Invitrogen, Carlsbad, Calif.) to synthesize […] cDNA. For qRTPCR, primer specificity was initially verified by searching for homology to genomic databases using NCBI BLAST. After completion of qRTPCR, the appropriately sized amplicon were confirmed by agarose gel electrophoresis. All reactions were performed in duplicate in a 50 μl volume consisting of 3 μl cDNA, 15 μmol each of the forward and reverse primer of β-Actin and 45 μmol each of the forward and reverse primer of all other primer pairs, and the fluorescent SYBR Green I dye. Fluorescence was measured at the end of each annealing cycle using the ABI Prism 7000 (Applied Biosystems, Foster City, Calif.). Average threshold cycle (Ct) values were measured in the exponential phase of the PCR reaction for each duplicate sample. Average Ct values were normalized against that β-Actin amplified in parallel from the same sample. Relative expression of the treated samples was determined by first normalizing against that of the untreated samples (ΔCT^sample−ΔCT^normal=ΔΔCT) and then calculating the fold change (fold change=2^−ΔΔCt).
(§4) Primers used for quantitative real-time PCR were as follows: […]
The details of the annealing temperature are as follows. […] For real-time PCR, the cDNA was amplified using an ABI PRISM 7000 Sequence Detection System (PE Applied Biosystems, Foster City, Calif.). The dsDNA-specific dye SYBR Green I incorporated into the PCR reaction buffer QuantiTech™ SYBR PCR (Qiagen) to allow for quantitative detection of the PCR product in a 25-μl reaction volume. The temperature profile of the reaction was 95° C. for 10 min, 40 cycles of denaturation at 95° C. for 15 sec, annealing at 60° C. for 30 sec, and extension at 72° C. for 30 sec. An internal housekeeping gene control, β-actin, was used to normalize differences in RNA isolation, RNA degradation, and the efficiencies of the RT. The size of the PCR product was first verified on a 1.5% agarose gel, followed by melting curve analysis.
(§5) Neuroblastoma cells (SY5Y) were treated with each agent for 6 hours or 16 hours and control cells were left untreated (U) for the same indicated times (i.e., 6 hours untreated=U6, and 16 hours untreated=U16).

[2] = molecular target: T1, Iron-Regulatory Protein-1 (IRP-1) binding to α-synuclein mRNA (Homo sapiens, UniProt P21399); assay: Immunoprecipitation RT-PCR of α-synuclein mRNA bound to IRP-1 in SH-SY5Y lysates; format: cell-based; settings: iron-treated SH-SY5Y cells, FIG. 6B
T1 construct: endogenous in cells; host or cells: SH-SY5Y neuroblastoma cells (lysates after treatment of the cells)
T1 sequence (P21399 1-889): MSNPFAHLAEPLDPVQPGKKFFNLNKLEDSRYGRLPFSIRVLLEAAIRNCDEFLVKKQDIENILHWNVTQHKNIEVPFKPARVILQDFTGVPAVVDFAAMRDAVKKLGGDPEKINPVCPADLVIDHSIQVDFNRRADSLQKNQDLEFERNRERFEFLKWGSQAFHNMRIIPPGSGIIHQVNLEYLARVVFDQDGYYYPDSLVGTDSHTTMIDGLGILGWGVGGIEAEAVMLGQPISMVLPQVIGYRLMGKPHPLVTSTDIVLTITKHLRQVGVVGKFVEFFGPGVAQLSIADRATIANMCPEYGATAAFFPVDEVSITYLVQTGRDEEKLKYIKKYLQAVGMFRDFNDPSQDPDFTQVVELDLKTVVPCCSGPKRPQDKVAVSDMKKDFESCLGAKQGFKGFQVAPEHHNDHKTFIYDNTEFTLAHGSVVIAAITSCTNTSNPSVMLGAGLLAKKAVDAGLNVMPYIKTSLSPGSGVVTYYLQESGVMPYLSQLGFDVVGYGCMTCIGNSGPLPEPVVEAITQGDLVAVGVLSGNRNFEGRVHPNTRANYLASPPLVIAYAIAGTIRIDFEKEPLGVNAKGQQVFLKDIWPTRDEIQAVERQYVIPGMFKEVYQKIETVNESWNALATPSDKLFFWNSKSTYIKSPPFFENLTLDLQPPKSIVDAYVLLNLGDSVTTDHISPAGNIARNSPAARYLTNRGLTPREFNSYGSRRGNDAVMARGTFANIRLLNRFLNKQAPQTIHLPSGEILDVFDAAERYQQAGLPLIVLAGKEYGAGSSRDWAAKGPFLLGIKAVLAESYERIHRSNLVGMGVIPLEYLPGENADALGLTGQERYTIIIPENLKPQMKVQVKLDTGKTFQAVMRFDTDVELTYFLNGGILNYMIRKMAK
Method: Neuroblastoma cells were treated with (i) DFO ([…]), (ii) feTf (10 μM) or remained untreated. Cells were lysed in RIPA buffer, and cytosolic extracts were immunoprecipitated with antibody to IRP-1 and IRP-2. After washing with Fe-beads the bound mRNA or superatant RNA was reverse transcribed and the mRNAs attached to the IRP-1/IRP—2 were identified by immunoprecipitation of RNA that selectively interacted with IRP-1/IRP-2 (method of Thomson, A. M., et al., Biol. Chem. 2005 Aug. 26; 280(34):30032-45. Epub 2005 Jun. 20.
We tested whether α-synuclein mRNA interacted with IRP-1 or IRP-2 by use of an RNA co-immunoprecipitation technique shown in FIG. 6. In this IPRT-PCR experiment α-synuclein mRNA was selectively co-immunoprecipitated with IRP-1 from neuroblastoma lysates (the presence of ASN mRNA was detected by PCR of cDNA reverse transcribed from mRNA immunopreciptated with IRP-1 on washed beads according to standard methods (Thomson, A. M., et al., (2005) J Biol Chem 280, 30032-30045). Ferritin mRNA was selectively immunopreciptated with both IRP-1 and IRP-2, whereas α-synuclein mRNA was selectively bound to IRP-1, not IRP-2. This technique was semi qualitative PCR, though the amount of α-synuclein mRNA attached IRP-1 was iron dependent in the experiment shown in FIG. 6B. […]

Tau mRNA = assay: Quantitative real-time PCR of Tau mRNA levels in SY5Y cells; format: cell-based, human; settings: for Tau mRNA levels: 6 or 16 hours (100 μM DFO where stated), FIG. 5
Method: Quantitative real-time PCR (QRTPCR) was performed on RNA extracted from iron/zinc and desferrioxamine treated mRNA. Methods for QRTPCR were as described for priming an α-synuclein amplicon (see Example 1) except that oligonucleotides were (NM016835Rev) 5′[…]3′ (SEQ ID NO:15) and (NM 016835For) 5′[…]3′ (SEQ ID NO:16).
as §5

α-synuclein protein = assay: Western blot of α-synuclein protein levels in treated SY5Y neuroblastoma cells; format: cell-based, human
α-synuclein 5′ UTR = assay: Luciferase reporter assay, α-synuclein 5′UTR-pGL3 transfected neuroblastoma cells; format: cell-based, human; settings: 48 hours, luciferase controlled by α-synuclein 5′ UTR
Method: (§6) To determine whether α-synuclein 5′UTR sequences were iron responsive SH-SY5Y transfection experiments were performed using an ASN 5′UTR pGL3 construct compared to pGL3, and control vector in which the luciferase expression was translated in the absence of the α-synuclein 5′UTR.
A 46 base sequence (SEQ ID NO:21) of the α-synuclein 5′ UTR was synthesized with a HindIII site at the 5′ end and a Nco I site at the 3′ end (Integrated DNA Technologies, Coralville, Iowa) and then ligated into a pGL-3 vector (Promega, Madison Wis.) immediately in front of the luciferase gene, under the control of a SV40 promotor. Wild-type pGL3 or pGL3 containing the α-synuclein 5′ UTR insert upstream of the luciferase promotor (α-synuclein 5′UTR-pGL3) were used. Expression of green fluorescent protein (GFP) within the pGL3 vector, controlled by a SV40 late poly(A) signal was used to control for transfection efficiency. 8×10^5 neuroblastoma HYSY cells were seeded for 24 hours in 60-mm^2 dishes with 5 ml Dulbeccco's modified medium containing 10% fetal bovine serum. For transfection, cells were first rinsed 3× in Phosphate Buffered Saline (PBS) and then treated with 5 μg of purified DNA combined with PolyFect transfection reagent and growth medium, according to the manufacturer's specifications (Qiagen). After a 24 hours incubation at 37° and 5% CO2 to maximize transfection efficiency, cells were washed in PBS 3×, trypsonized and plated to 95% confluence in 96-well plates. Cells were allowed to seed in the 96-well plates for 12 hours in Dulbecco's modified medium containing 10% fetal bovine serum and ampicillin, to select for cells containing the plasmid, which contained an ampicillin resistance gene. […] Treatment medium was prepared fresh the day of experiment and incubated for 1 hour at 37° prior to the experiment to maximize solubility. […] Cells were lysed with 1× Bright-glo luciferase assay buffer and the lysates combined with bright-glo luciferase assay substrate warmed to 37°, according to the specifications of the manufacturer (Promega, Madison, Wis.). All experiments were performed in triplicate. Automated luciferase assays were performed with a Wallac 1420 multi-label counter. GFP expression was quantified at 489/509 nm with the same Wallac 1420 counter to control for transfection efficiency.

α-synuclein mRNA = assay: Quantitative real-time PCR of α-synuclein mRNA levels in SY5Y cells; format: cell-based, human; settings: 6 or 16 hours, relative to beta actin (FIG. 4)
Method: as §1, §2
as §3, with “All reactions were performed in duplicate in a 50 μl volume consisting of 3 μl cDNA, 15 μmol each of the forward and reverse primer of β-Actin and 45 μmol each of the forward and reverse primer of all other primer pairs, and the fluorescent SYBR Green I dye.” left out, “Average Ct values were normalized against that β-Actin amplified in parallel from the same sample.” left out
as §4
The details of the annealing temperature are as follows. […] The dsDNA-specific dye SYBR Green I incorporated into the PCR reaction buffer QuantiTech™ SYBR PCR (Qiagen) to allow for quantitative detection of the PCR product in a 25-μl reaction volume. […]

wild-type pGL3 vector = assay: Luciferase reporter assay, wild-type pGL3 control vector; format: cell-based
Method: as §6
A 46 base sequence (SEQ ID NO:21) of the α-synuclein 5′ UTR was synthesized with a HindIII site at the 5′ end and a Nco I site at the 3′ end (Integrated DNA Technologies, Coralville, Iowa) and then ligated into a pGL-3 vector (Promega, Madison Wis.) immediately in front of the luciferase gene, under the control of a SV40 promotor. Wild-type pGL3 or pGL3 containing the α-synuclein 5′ UTR insert upstream of the luciferase promotor (α-synuclein 5′UTR-pGL3) were used. Expression of green fluorescent protein (GFP) within the pGL3 vector, controlled by a SV40 late poly(A) signal was used to control for transfection efficiency. 8×10^5 neuroblastoma HYSY cells were seeded for 24 hours in 60-mm^2 dishes with 5 ml Dulbeccco's modified medium containing 10% fetal bovine serum. […] GFP expression was quantified at 489/509 nm with the same Wallac 1420 counter to control for transfection efficiency.

Question: What does the source list for iron?
Answer: fold reduction for TfR mRNA ([1]; 400 micromolar iron (16 h), FIG. 5): 0.45 fold; IRP-1 binding (to α-synuclein mRNA) [2]: reduced; fold reduction for Tau mRNA (Tau mRNA; 400 micromolar iron (16 h)): 0.66 fold

Question: How did the “TfR mRNA up-regulation in response to DFO” value ([1]; DFO (100 μM where stated), FIG. 4, relative to beta actin) turn out when `CC(=O)N(O)CCCCCNC(=O)CCC(=O)N(O)CCCCCNC(=O)CCC(=O)N(O)CCCCCN` [DFO, desferrioxamine] was run?
Answer: 3 fold

Question: And the “TfR mRNA up-regulation in response to DFO” value ([1]; FIG. 5 (Tau experiment), 16 hours DFO where stated)?
Answer: 4.5 fold

Question: And the “steady-state levels of α-synuclein protein” value (α-synuclein protein; 100 μM DFO (16 h))?
Answer: reduced

Question: And the “intracellular levels of α-synuclein protein” value (α-synuclein protein; short-term (6 h) and long-term (3 d) desferrioxamine treatment)?
Answer: dramatic reduction

Question: And the “Tau mRNA levels” value (Tau mRNA)?
Answer: up-regulated; also recorded: dramatically changed

Question: And the “increase in induction for Tau mRNA” value (Tau mRNA; 16 hours treatment with DFO, relative to beta actin)?
Answer: 5 fold

Question: What about the decrease in luminescence (α-synuclein 5′ UTR; 50 mM DFO) of the same compound?
Answer: 25%

Question: And the decrease in luminescence (α-synuclein 5′ UTR; 100 mM DFO, p<0.001)?
Answer: 50%

Question: What about the “α-synuclein mRNA levels” value (α-synuclein mRNA) of the same compound?
Answer: unchanged; also recorded: not modulated

Question: What about the “α-synuclein mRNA levels” value (α-synuclein mRNA; listed as desferrioxamine) of the same compound?
Answer: unchanged

Question: And the “effect on luciferase activity” value (wild-type pGL3 vector)?
Answer: no effect

Question: What does the source list for ferric ammonium citrate [FAC]?
Answer: TfR mRNA reduction by FAC ([1]; FIG. 5 (Tau experiment)): 4 fold; α-synuclein protein levels (monomer, 15 kDa) (α-synuclein protein; 100 μM FAC, 6 hour and 3 days, Western blot (FIG. 3)): increase; Tau mRNA levels (Tau mRNA): down regulated; increase in luminescence (α-synuclein 5′ UTR; 10 mg/ml FAC): 5 fold; increase in luminescence (α-synuclein 5′ UTR; 100 mg/ml FAC, p<0.001): 20 fold; α-synuclein mRNA levels (α-synuclein mRNA): did not change as significantly although it was reduced; also recorded: not modulated; effect on luciferase activity (wild-type pGL3 vector): no effect

Question: For zinc, which “TfR mRNA responsiveness to zinc (control for iron specificity)” value ([1]; FIG. 5) is on record?
Answer: surprisingly responsive

Reference: patent publication US20100151520A1, “Translation Enhancer Elements Of Genes Encoding Human Tau Protein and Human Alpha-Synuclein Protein” (priority 2004, published 2010)
